Legend:
[1] = test system: Mus musculus; test: Compound was tested for mortality in L1210 leukemia implanted BDF1 mice on day 0 after ip administration of 10 mg/kg/day on day 1 out of 5 mice; format: functional; details: route intraperitoneal
[2] = test system: Mus musculus; test: Compound was tested for mortality in P388 leukemia implanted BDF1 mice on day 0 after ip administration of 7.5 mg/kg/day on day 1-5 out of 5 mice; format: functional; details: route intraperitoneal

NC(=O)c1ncn2c(=O)n(CCCl)nnc12 [MITOZOLOMIDE]
Mortality [1]: 0 | Mortality [2]: 0

From ChEMBL document CHEMBL1122784, “Antitumor imidazotetrazines. 1. Synthesis and chemistry of 8-carbamoyl-3-(2-chloroethyl)imidazo[5,1-d]-1,2,3,5-tetrazin-4(3 H)-one , a novel broad-spectrum antitumor agent” (J Med Chem, 1984)
